Measured values reported in PMC4177392, “Modulation of Cytochrome P450 Metabolism and Transport across Intestinal Epithelial Barrier by Ginger Biophenolics” (PLoS ONE, 2014).
Converted amounts (≈) assume the structure as drawn.

Columns and labels:
CYP2A6 = biological target: T1, CYP2A6 (Homo sapiens, UniProt P11509); experiment: CYP2A6 inhibition in human liver microsomes (substrate coumarin); type: in vitro ADME
T1 sequence (P11509 1-494): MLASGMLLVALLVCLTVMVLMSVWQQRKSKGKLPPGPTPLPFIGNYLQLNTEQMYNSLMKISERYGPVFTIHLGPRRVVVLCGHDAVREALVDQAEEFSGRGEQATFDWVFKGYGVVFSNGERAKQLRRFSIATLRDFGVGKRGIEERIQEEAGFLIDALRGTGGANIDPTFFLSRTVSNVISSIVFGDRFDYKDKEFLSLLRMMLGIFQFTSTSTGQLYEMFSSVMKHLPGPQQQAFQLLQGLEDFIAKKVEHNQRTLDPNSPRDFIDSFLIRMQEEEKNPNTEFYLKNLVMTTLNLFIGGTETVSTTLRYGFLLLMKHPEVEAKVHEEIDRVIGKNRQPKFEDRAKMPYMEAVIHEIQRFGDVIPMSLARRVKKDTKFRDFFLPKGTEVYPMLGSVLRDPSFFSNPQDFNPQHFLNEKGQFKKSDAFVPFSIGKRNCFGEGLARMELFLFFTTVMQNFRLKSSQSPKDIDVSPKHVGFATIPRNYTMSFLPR
Method: (§5) The highest concentration of GE used in the assay was 500 µg/mL equivalent. Stock solution for each CYP specific probe substrate was prepared in such a way that the final concentration is below the reported Km value.
(§6) A microsome-buffer-substrate mixture (MBS mix) was prepared for each isozyme by pre-mixing appropriate volumes of sodium phosphate buffer (pH 7.4, 50 mM), microsomes and substrate (Table S2 in File S1). 179 µL of MBS mix was transferred to 96-well reaction plate to which 1 µL of inhibitor stock solution was added to achieve the final target inhibitor concentration. The reaction plate was pre-incubated for 10 min at 37°C followed by reaction initiation by addition of 20 µL of 10 mM NADPH solution. The reaction plate was then incubated at 37°C for a predetermined time period following which it was quenched with 200 µL ACN for all CYPs and 200 µL 1% formic acid in water∶ACN (70∶30) for CYP1A2. In all cases, the final incubations after addition of substrate and inhibitor contained 0.1% DMSO (v/v), and the total organic solvent (DMSO and ACN) content was less than or equal to 1% (v/v). […] The incubations were performed in singlet for individual gingerols and in duplicate for GE along with respective positive controls.

CYP2E1 = CYP2E1 (Homo sapiens, UniProt P05181); experiment: CYP2E1 inhibition in human liver microsomes (substrate chlorzoxazone); conditions: for IC50 CYP2E1: human liver microsomes, substrate chlorzoxazone, positive control
Chain of CYP2E1 (P05181 whole entry): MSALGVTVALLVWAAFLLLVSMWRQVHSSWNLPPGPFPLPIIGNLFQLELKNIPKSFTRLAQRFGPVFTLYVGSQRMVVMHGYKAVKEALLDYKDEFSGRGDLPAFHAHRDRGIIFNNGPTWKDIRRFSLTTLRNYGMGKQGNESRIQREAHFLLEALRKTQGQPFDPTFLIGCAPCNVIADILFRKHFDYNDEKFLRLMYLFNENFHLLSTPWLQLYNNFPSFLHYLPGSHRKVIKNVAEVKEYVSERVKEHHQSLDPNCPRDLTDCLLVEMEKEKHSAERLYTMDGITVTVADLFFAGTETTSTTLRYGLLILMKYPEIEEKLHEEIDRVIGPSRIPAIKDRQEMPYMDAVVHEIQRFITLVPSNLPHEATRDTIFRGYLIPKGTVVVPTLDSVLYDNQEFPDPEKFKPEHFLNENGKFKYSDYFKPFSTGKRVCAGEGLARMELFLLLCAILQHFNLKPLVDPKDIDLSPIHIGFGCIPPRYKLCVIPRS
Method: (§1) Stock solution for each CYP specific probe substrate was prepared in such a way that the final concentration is below the reported Km value.
(§2) A microsome-buffer-substrate mixture (MBS mix) was prepared for each isozyme by pre-mixing appropriate volumes of sodium phosphate buffer (pH 7.4, 50 mM), microsomes and substrate (Table S2 in File S1). 179 µL of MBS mix was transferred to 96-well reaction plate to which 1 µL of inhibitor stock solution was added to achieve the final target inhibitor concentration. The reaction plate was pre-incubated for 10 min at 37°C followed by reaction initiation by addition of 20 µL of 10 mM NADPH solution. The reaction plate was then incubated at 37°C for a predetermined time period following which it was quenched with 200 µL ACN for all CYPs and 200 µL 1% formic acid in water∶ACN (70∶30) for CYP1A2. In all cases, the final incubations after addition of substrate and inhibitor contained 0.1% DMSO (v/v), and the total organic solvent (DMSO and ACN) content was less than or equal to 1% (v/v). The details of final substrate concentration, incubation time, microsomal protein concentration in the reaction mixtures and the metabolites monitored for each isozyme tested are presented in Table S3 in File S1.
(§3) All samples were processed using protein precipitation method and analyzed by employing positive (for all CYPs) and negative (for CYP2A6, 2C19 and 2E1) ionization mode in liquid chromatography tandem mass spectrometry (API4000, Applied Biosystems, USA). The peak area ratio of analyte to IS was used for calculations. An isocratic method comprising 5 mM ammonium formate and ACN (40∶60) with 0.05% formic acid was used for elution. For CYP2C19, a mobile phase consisting of 5 mM ammonium formate and ACN (30∶70) was used. The analytes and internal standards were retained on BDS Hypersil Phenyl (150×4.6 mm, 5 µ, Thermo, USA) column. A flow rate of 0.5 mL/min (CYP1A2), 0.6 mL/min (CYP2C19, CYP2E1), 0.7 mL/min (CYP2C9), 0.8 mL/min (CYP2A6, CYP3A), 1.0 mL/min (CYP2B6, CYP2C8, CYP2D6) was maintained using Shimadzu Prominence solvent delivery system (LC-20AD). The mobile phase was degassed using degasser (DGU-20A3), samples were loaded into autosampler (SIL-HTc) and the column temperature was maintained at 40°C by column oven (CTO-20A). Injection volumes for the samples were as follows: 5 µL (CYP1A2, CYP2D6, and CYP3A), 10 µL (CYP2B6, CYP2C8, and CYP2E1) and 20 µL (CYP2A6, CYP2C9, and CYP2C19). Data was collected and processed using Sciex Analyst 1.4.2. All the structures of inhibitors, substrates, metabolites and internal standards for each CYP enzyme are represented in Table S6 in File S1.
The IC50 value was estimated from the percentage reduction in CYP activity at eleven inhibitor concentrations with respect to control.
(§4) The data was analysed using 4PL (parameter logistic model), 3PLFB (bottom fixed), 3PLFT (top fixed), 2PL (top and bottom fixed), and the relative IC50 was with lowest standard error was further manipulation. Absolute IC50 was calculated from this relative IC50 by using the equation below: [drawing 3]

CYP1A2 = biological target: T2, CYP1A2 (Homo sapiens, UniProt P05177); experiment: CYP1A2 inhibition in human liver microsomes (substrate phenacetin); type: in vitro ADME
T2 construct: […]; tissue XenoTechLLC H0610
T2 sequence (P05177 1-516): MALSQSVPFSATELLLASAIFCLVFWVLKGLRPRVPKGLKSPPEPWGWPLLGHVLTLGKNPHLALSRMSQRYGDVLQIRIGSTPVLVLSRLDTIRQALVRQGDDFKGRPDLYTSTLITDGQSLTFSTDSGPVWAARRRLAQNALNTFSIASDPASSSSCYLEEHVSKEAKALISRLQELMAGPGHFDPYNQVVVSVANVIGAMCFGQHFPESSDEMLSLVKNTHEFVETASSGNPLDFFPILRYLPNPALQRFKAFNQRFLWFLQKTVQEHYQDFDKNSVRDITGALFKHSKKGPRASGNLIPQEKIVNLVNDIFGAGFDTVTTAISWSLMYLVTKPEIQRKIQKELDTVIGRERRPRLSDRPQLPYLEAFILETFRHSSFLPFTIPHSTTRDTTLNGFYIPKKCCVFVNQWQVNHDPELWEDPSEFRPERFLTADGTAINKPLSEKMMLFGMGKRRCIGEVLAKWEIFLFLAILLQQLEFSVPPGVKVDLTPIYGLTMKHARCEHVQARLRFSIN
Method: as §5, §6

CYP2B6 = biological target: T3, CYP2B6 (Homo sapiens, UniProt P20813); experiment: CYP2B6 inhibition in human liver microsomes (substrate bupropion); type: in vitro ADME
T3 sequence (P20813 1-491): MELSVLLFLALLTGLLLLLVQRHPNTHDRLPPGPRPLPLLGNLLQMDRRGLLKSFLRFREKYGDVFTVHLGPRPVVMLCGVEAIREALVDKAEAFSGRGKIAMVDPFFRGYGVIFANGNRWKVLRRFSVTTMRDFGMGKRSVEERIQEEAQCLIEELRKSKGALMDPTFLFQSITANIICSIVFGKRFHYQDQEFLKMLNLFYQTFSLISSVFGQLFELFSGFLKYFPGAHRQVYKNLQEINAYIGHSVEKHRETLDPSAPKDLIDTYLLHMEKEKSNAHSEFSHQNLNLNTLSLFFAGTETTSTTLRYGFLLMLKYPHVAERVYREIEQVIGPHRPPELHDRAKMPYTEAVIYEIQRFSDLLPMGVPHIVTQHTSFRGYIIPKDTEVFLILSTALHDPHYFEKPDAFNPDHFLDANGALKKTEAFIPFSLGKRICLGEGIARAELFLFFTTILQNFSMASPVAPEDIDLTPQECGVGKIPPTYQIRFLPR
Method: as §5, §6

CYP2C8 = biological target: T4, CYP2C8 (Homo sapiens, UniProt P10632); experiment: CYP2C8 inhibition in human liver microsomes (substrate amodiaquine); type: in vitro ADME; conditions: IC50 CYP2C8, human liver microsomes; substrate amodiaquine; gingerols and GE
T4 sequence (P10632 1-490): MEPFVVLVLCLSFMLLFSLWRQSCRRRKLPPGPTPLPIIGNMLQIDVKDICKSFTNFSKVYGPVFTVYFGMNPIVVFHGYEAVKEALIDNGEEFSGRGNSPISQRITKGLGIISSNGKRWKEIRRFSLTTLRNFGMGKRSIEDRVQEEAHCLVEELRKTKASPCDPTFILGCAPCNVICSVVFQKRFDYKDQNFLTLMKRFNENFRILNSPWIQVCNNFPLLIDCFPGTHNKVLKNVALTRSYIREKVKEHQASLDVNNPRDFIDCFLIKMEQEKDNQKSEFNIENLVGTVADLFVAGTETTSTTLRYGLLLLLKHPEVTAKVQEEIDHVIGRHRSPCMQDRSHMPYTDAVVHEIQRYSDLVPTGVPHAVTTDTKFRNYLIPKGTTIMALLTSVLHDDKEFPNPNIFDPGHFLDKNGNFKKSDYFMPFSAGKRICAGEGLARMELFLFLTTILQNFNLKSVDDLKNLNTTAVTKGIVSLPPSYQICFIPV
Method: as §5, §6

CYP2C9 = CYP2C9 (Homo sapiens, UniProt P11712); experiment: CYP2C9 inhibition in human liver microsomes (substrate diclofenac)
Chain of CYP2C9 (P11712 whole entry): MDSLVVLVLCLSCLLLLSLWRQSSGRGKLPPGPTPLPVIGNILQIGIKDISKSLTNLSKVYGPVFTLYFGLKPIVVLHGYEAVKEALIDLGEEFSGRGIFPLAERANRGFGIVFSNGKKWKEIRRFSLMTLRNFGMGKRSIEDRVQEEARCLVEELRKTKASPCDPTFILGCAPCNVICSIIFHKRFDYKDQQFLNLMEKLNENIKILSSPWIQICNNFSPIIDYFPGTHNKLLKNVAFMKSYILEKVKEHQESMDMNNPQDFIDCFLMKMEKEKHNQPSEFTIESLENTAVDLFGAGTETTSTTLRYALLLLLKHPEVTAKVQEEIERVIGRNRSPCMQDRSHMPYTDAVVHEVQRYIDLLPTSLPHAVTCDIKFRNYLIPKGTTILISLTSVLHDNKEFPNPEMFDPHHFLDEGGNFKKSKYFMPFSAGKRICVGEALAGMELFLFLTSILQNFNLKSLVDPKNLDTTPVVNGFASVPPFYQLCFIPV
Method: as §1, §2
as §3, with “All the structures of inhibitors, substrates, metabolites and internal standards for each CYP enzyme are represented in Table S6 in File S1.” left out
as §4

CYP2C19 = CYP2C19 (Homo sapiens, UniProt P33261); experiment: CYP2C19 inhibition in human liver microsomes (substrate (S)-mephenytoin); type: in vitro ADME
Chain of CYP2C19 (P33261 whole entry): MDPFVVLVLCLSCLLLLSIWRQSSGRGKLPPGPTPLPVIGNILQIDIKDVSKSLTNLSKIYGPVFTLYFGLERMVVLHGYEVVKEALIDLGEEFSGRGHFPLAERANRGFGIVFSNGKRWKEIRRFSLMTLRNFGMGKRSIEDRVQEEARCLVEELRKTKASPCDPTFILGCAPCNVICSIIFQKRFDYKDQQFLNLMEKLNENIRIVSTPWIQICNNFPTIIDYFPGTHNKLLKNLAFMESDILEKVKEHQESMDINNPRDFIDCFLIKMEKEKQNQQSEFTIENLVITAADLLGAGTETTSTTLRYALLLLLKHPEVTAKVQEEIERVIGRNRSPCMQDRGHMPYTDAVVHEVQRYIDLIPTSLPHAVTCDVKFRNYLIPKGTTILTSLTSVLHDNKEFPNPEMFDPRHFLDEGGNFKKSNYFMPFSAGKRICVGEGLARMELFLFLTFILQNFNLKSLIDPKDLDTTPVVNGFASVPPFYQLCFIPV
Method: as §5
(§7) A microsome-buffer-substrate mixture (MBS mix) was prepared for each isozyme by pre-mixing appropriate volumes of sodium phosphate buffer (pH 7.4, 50 mM), microsomes and substrate (Table S2 in File S1). 179 µL of MBS mix was transferred to 96-well reaction plate to which 1 µL of inhibitor stock solution was added to achieve the final target inhibitor concentration. The reaction plate was pre-incubated for 10 min at 37°C followed by reaction initiation by addition of 20 µL of 10 mM NADPH solution. The reaction plate was then incubated at 37°C for a predetermined time period following which it was quenched with 200 µL ACN for all CYPs and 200 µL 1% formic acid in water∶ACN (70∶30) for CYP1A2. In all cases, the final incubations after addition of substrate and inhibitor contained 0.1% DMSO (v/v), and the total organic solvent (DMSO and ACN) content was less than or equal to 1% (v/v). The details of final substrate concentration, incubation time, microsomal protein concentration in the reaction mixtures and the metabolites monitored for each isozyme tested are presented in Table S3 in File S1. The incubations were performed in singlet for individual gingerols and in duplicate for GE along with respective positive controls.
(§8) All samples were processed using protein precipitation method and analyzed by employing positive (for all CYPs) and negative (for CYP2A6, 2C19 and 2E1) ionization mode in liquid chromatography tandem mass spectrometry (API4000, Applied Biosystems, USA). The peak area ratio of analyte to IS was used for calculations. An isocratic method comprising 5 mM ammonium formate and ACN (40∶60) with 0.05% formic acid was used for elution. For CYP2C19, a mobile phase consisting of 5 mM ammonium formate and ACN (30∶70) was used. The analytes and internal standards were retained on BDS Hypersil Phenyl (150×4.6 mm, 5 µ, Thermo, USA) column. A flow rate of 0.5 mL/min (CYP1A2), 0.6 mL/min (CYP2C19, CYP2E1), 0.7 mL/min (CYP2C9), 0.8 mL/min (CYP2A6, CYP3A), 1.0 mL/min (CYP2B6, CYP2C8, CYP2D6) was maintained using Shimadzu Prominence solvent delivery system (LC-20AD). The mobile phase was degassed using degasser (DGU-20A3), samples were loaded into autosampler (SIL-HTc) and the column temperature was maintained at 40°C by column oven (CTO-20A). […]

CYP2D6 = CYP2D6 (Homo sapiens, UniProt P10635); experiment: CYP2D6 inhibition in human liver microsomes (substrate dextromethorphan); type: in vitro ADME; conditions: IC50 CYP2D6, human liver microsomes; substrate dextromethorphan; gingerols and GE
Chain of CYP2D6 (P10635 whole entry): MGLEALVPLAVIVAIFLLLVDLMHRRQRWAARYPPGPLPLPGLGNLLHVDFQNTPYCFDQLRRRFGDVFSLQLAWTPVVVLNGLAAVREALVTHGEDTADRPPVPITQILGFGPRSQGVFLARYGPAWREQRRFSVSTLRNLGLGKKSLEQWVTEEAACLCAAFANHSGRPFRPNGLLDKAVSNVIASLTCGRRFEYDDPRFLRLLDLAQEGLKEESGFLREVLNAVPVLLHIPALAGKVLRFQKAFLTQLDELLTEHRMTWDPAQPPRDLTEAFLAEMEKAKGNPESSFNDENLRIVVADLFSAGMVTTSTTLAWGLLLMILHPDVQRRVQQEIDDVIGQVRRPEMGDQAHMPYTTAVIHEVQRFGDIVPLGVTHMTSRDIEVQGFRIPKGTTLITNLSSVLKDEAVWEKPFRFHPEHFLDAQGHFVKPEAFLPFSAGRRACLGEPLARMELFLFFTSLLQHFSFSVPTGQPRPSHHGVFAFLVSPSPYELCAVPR
Method: as §5, §7, §8

CYP3A4 [1] = biological target: T5, CYP3A4 (Homo sapiens, UniProt P08684); experiment: CYP3A4 inhibition in human liver microsomes (substrate midazolam); type: in vitro ADME
T5 sequence (P08684 2-503): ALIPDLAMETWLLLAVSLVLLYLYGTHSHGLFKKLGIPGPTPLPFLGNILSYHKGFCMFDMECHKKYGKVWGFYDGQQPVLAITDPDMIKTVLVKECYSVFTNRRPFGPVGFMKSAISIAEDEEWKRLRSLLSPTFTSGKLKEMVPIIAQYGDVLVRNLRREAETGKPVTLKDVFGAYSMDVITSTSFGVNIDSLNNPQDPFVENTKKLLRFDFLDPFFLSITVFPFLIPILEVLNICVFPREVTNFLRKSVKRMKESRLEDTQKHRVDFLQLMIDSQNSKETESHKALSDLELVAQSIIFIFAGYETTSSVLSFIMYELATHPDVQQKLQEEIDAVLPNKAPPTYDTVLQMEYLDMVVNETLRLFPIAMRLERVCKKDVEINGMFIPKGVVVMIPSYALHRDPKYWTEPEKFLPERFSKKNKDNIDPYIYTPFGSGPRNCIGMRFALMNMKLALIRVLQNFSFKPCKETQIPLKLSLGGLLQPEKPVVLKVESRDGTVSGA
Method: as §5, §7, §8

CYP3A4 [2] = biological target: T5, CYP3A4; experiment: CYP3A4 inhibition in human liver microsomes (substrate testosterone); type: in vitro ADME
Method: as §5, §6

[3] = human, in vivo, po; cited from earlier work
[4] = Caco-2 permeability assay; conditions: human; for recovery at 120 min, 10 µM: Caco-2, pH 7.4, Mass Balance (recovery); for Papp at 120 min, 10 µM: Caco-2, pH 7.4, Papp, n = 3, mean ± SD
Method: (§9) Caco-2 cells were seeded on tissue culture inserts at a density of 80,000 cells/insert. The cells were maintained for 21 days in culture medium to enable differentiation and formation of the monolayer. The culture medium was changed every alternate day.
(§10) Stock solutions (1 mM) of individual gingerols were prepared in DMSO, which were then spiked into the buffer to obtain a final assay concentration of 10 µM. HBSS-HEPES buffer was prepared by dissolving 9.7 g Hank's balanced salts, 0.37 g sodium bicarbonate, 3.50 g glucose and 2.38 g HEPES in Milli-Q water (1 L). The pH of the buffer was adjusted to 7.4 using either 1N hydrochloric acid or 1N sodium hydroxide.
(§11) Permeability of gingerols (10 µM) was determined in apical to basolateral (A-B) and basolateral to apical (B-A) directions. Transport studies were conducted between 21–25 days post seeding in 12-well Transwell inserts. Following pre-incubation in HBSS-HEPES buffer at 37°C, 5% CO2 for 30 min, buffer was removed and gingerols spiked buffer was added to each donor compartment (triplicate wells). Blank HBSS-HEPES buffer containing 1% DMSO was added to the receiver compartment. Samples were withdrawn from the receiver chamber at 30, 60, 90, and 120 min, and from the donor chamber at 0 and 120 min. The samples were collected in tubes containing equal volume of ACN. The withdrawn volume was replaced with buffer containing 1% DMSO. At the end of the experiment, cells were washed with ice-cold buffer and lysed with ACN to assess cell accumulation and estimate the recovery. Monolayers with transepithelial electrical resistance (TEER) above 300 Ωcm^2 were considered for the assay and after the assay TEER values were above 300 Ωcm^2 confirming the monolayer integrity during the experiment.
(§12) Samples were processed using protein precipitation method and analyzed using LC/MS/MS. A calibration curve (CC) of 5 nM to 10,000 nM range was employed to quantify the samples. […] Separation was achieved using Zorbax C18 column (50×4.6 mm, 3.5 µ, Agilent) for 8G, 10G, 6S and using Hypurity C18 column (100×4.6 mm, 5 µ, Thermo) for 6G. An injection volume of 20 µL was used for all samples and a flow rate of 0.6 mL/min (6G) and 1 mL/min (8G, 10G and 6S) was used for elution.
(§13) Cumulative amount of gingerols transported at each time point was plotted as function of time. The slope was used to calculate the rate of appearance of gingerols (dQ/dt).
(§14) Apparent permeability (Papp) was calculated using the formula [drawing 4] dQ/dt – rate of transport to receiver side

Caco-2 monolayer = experiment: Caco-2 permeability assay; conditions: 10 µM
Method: as §9, §10, §11, §12, §13, §14

What does the source list for `N[C@@H]1C[C@H]1c1ccccc1` (racemic) [Tranylcypromine, reference compound]?
IC50 CYP2A6 (CYP2A6; human liver microsomes, substrate coumarin, positive control): 0.0084 µg/mL (≈ 0.0631 µM); CYP2A6 inhibition, fold more effective than the test compounds (CYP2A6; positive control vs test compounds): ~4000 fold; IC50 CYP2E1 (CYP2E1): 0.5793 µg/mL (≈ 4.35 µM); IC50 CYP2E1 (CYP2E1; listed as tranylcypromine): 0.579 µg/mL (≈ 4.35 µM)

What does the source list for `CCCCC[C@H](O)CC(=O)CCc1ccc(O)c(OC)c1` [6G, 6-gingerol]?
IC50 (CYP1A2): 19 µM; IC50 (CYP2A6): > 98.5 µM; IC50 (CYP2B6): 51 µM; IC50 (CYP2C8): 22.1 µM; IC50 (CYP2C9): 27.9 µM; IC50 (CYP2C19): 10.9 µM; IC50 (CYP2D6): > 98.5 µM; IC50 (CYP2E1): > 98.5 µM; IC50 (CYP3A4 [1]): > 98.5 µM; IC50 (CYP3A4 [2]): 37.4 µM; Cmax / circulating concentration in humans [3]: 850 ± 430 ng/mL; efflux ratio at 120 min, 10 µM ([4]; Caco-2, pH 7.4, Efflux Ratio): < 2; recovery at 120 min, 10 µM ([4]; A→B): < 50%; recovery at 120 min, 10 µM ([4]; B→A): 77%; Papp at 120 min, 10 µM ([4]; A→B): > 10 ×10⁻⁶ cm/s; Papp at 120 min, 10 µM ([4]; B→A): > 10 ×10⁻⁶ cm/s; Intracellular (cell) accumulation (Caco-2 monolayer; direction not given): < 5%; Intracellular accumulation (Caco-2 monolayer; A→B): 2%; Intracellular accumulation (Caco-2 monolayer; B→A): 5%
